Assay results taken from patent publication US20040053852A1, “Preventing desensitization of receptors” (priority 2001, published 2004).

Experiments:
[1] = Patient with cystic fibrosis, shortness of breath (Example VI); format: in vivo, human; conditions: inhaled GSNO 3 cc of a 10 mM solution, pH 7, 4×/day
Method: A person with cystic fibrosis enters the hospital complaining of shortness of breath. […] They are started on inhaled GSNO (3 cc of a 10 mM solution, pH 7, 4×/day).

[2] = Patient with metastatic prostate cancer, bone pain unresponsive to opiates (Example IV); format: in vivo, human; conditions: intravenous GSNO 10 nmol per kg per minute in conjunction with morphine
From the text: A person with metastatic prostate cancer is suffering from severe bone pain unresponsive to opiates.

[3] = test system: GRK; assay: GRK phosphorylation of a synthetic peptide substrate with 32P-ATP (isolated system); format: biochemical; conditions: 500 μM, 50 μM, 5 μm, FIG. 3
Method: An isolated system was provided consisting of medium, GRK, standard synthetic peptide substrate and radiolabeled ^32P-adenosine triphosphate, i.e., ^32P-ATP, as a source of phosphate. Runs were carried out on the system without additives, and with 500 μM glutathione (GSH) present and with GSNO (500 μM) present or with GSNO (50 μM) present or with GSNO (5 μm) present. The amount of bound ^32P was measured in counts per minute (CPM).

[4] = test system: heart muscle; assay: Ratio of heart weight to body weight after 1 week continuous infusion; format: in vivo; conditions: mice, FIG. 1
Method: Mice were treated with 10/ng/kg/day of GSNO, or with PBS (control) or with isoproterenol (at a dosage of 30 mg/kg/day) or with 10 mg/kg/day of GSNO plus 30 mg/kg/day isoproterenol, infused continuously for 1 week. The animals were sacrificed and the hearts were weighed and a ratio of heart weight to body weight was determined for each case. The results are set forth in FIG. 1 where hw:bw, i.e., the legend on the vertical axis, is the ratio of heart weight to total body weight and “ISO” means isoproterenol. […] The increase in size of heart (hypertrophy) is an advantage especially in the case of a patient on a left ventricular heart assist device awaiting heart transplant and in the case of a patient who has had heart surgery and cannot be disconnected from a heart pump without loss of heart function. The asterisks in FIG. 1 mean […] compared to control.

[5] = Patient with class 4 congestive heart failure (Example I); format: in vivo, human
Method: A person with class 4 congestive heart failure enters the hospital with shortness of breath and bradyacardia. […] The patient is subsequently switched to IV dobutamine at 10 μg per kg per minute titrated to cardiac output. Over the following three days the drug is increased to 30 μg per kg per minute to maintain cardiac output. […] The patient undergoes bypass surgery and does well even though they have been viewed as at high risk.

[6] = test system: β-adrenergic receptor; assay: Saturation binding with radiolabeled I125-cyanopindolol in purified cardiac membrane of treated mice; format: in vivo; conditions: GSNO 10 ng/kg/day plus isoproterenol 30 mg/kg/day for 7 days
Method: Mice were treated with 10 ng/kg/day of GSNO or PBS infused continuously for 1 week through an azlet miniosmotic pump placed subcutaneously. Another set of mice was treated for 7 days with isoproterenol (30 mg/kg/day), and the fourth and final group received for 7 days, isoproterenol (30 mg/kg/day) plus GSNO (10 ng/kg/day). The mice were sacrificed and heart tissue was removed.

[7] = Heroine addict, dose tapering, withdrawal symptoms (Example V); format: in vivo, human; conditions: ethyl nitrite intravenously 2 nmol per kg per minute
From the text: A heroine addict enters a clinic where their dose is tapered gradually. In order to avoid symptoms of withdrawal, ethyl nitrite is started intravenously at 2 nmol per kg per minute and symptoms of withdrawal, including sweats and shaking, are ameliorated.

N[C@@H](CCC(=O)N[C@@H](CSN=O)C(=O)NCC(=O)O)C(=O)O [GSNO, S-nitrosoglutathione]
FEV1, acute change [1]: does not change acutely
FEV1 over the following 48 hours [1]: corresponding improvement in FEV1
symptoms of shortness of breath ([1]; following 48 hours): resolve over the following 48 hours
bone pain [2]: now relieves their pain
incorporation of 32P into synthetic peptide substrate (bound 32P, CPM) [3]: concentration dependent reduction in incorporation of ^32P
size of heart muscle (hw:bw, ratio of heart weight to total body weight) ([4]; 10 mg/kg/day of GSNO plus 30 mg/kg/day isoproterenol infused continuously 1 week): even more effect in increasing size of heart muscle
size of heart muscle (hw:bw, ratio of heart weight to total body weight) ([4]; GSNO 10/ng/kg/day infused continuously 1 week): increases the size of the heart muscle
cardiac output ([5]; IV GSNO 2 nmol per kg per minute, on dobutamine 30 μg per kg per minute): cardiac output improved over the following 24 hours
amount of β-adrenergic receptor [6]: 90 fmol per mg protein

N[C@@H](CSN=O)C(=O)O [S-nitroso-cysteine]
incorporation of 32P into synthetic peptide substrate (bound 32P, CPM) [3]: same result of GRK inhibition and interference with substrate phosphorylation

CCON=O [ethyl nitrite]
symptoms of withdrawal [7]: ameliorated

CC(C)NCC(O)c1ccc(O)c(O)c1 (stereo not shown) [isoproterenol, reference compound]
size of heart muscle (hw:bw, ratio of heart weight to total body weight) ([4]; isoproterenol 30 mg/kg/day infused continuously 1 week): increased the size of the heart muscle
symptoms (shortness of breath, bradyacardia) ([5]; intravenous isoproterenol 10 μg per minute): resolution of symptoms
